The values that follow come from article PMC7279002, “Novel 3′-Substituted-1′,2′,4′-Oxadiazole Derivatives of 18βH-Glycyrrhetinic Acid and Their O-Acylated Amidoximes: Synthesis and Evaluation of Antitumor and Anti-Inflammatory Potential In Vitro and In Vivo” (International Journal of Molecular Sciences, 2020).

For assay [1], the system named is human cervical carcinoma HeLa. The experiment in a line: MTT cytotoxicity assay, 48 h. It counts as cell-based. In short, it runs like this:
(§1)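 Cells were seeded at 10^4 per well, grown 24 h, then exposed to derivatives (0.5–50 µM, DMSO vehicle) for 48 h at 37 °C, 5% CO2 in DMEM/10% FBS. Viability was read by MTT (0.5 mg/mL final, 2 h; A570/620). IC50 was the concentration reducing A570 to 50% of control, from dose–response curves.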
On the technique in general: Formazan colour is commonly taken as a measure of viable cells.

Assay [2] deals with human cervical carcinoma KB-3-1. In words: MTT cytotoxicity assay, 48 h. In kind it is cell-based. In short, it runs like this:
as §1

The subject of assay [3] is human duodenal carcinoma HuTu-80. In words: MTT cytotoxicity assay, 48 h. It counts as cell-based. Summed up:
as §1

Assay [4] has as its system human lung adenocarcinoma A549. In words: MTT cytotoxicity assay, 48 h. It counts as cell-based. The following applies: Homo sapiens, A549; MTT, 48 h. Summed up:
as §1

Another assay concerns murine melanoma B16. The experiment in a line: MTT cytotoxicity assay, 48 h. In kind it is cell-based. In short, it runs like this:
as §1

The test system of assay [5] is nontransformed human fibroblasts hFF3. In words: MTT cytotoxicity assay, 48 h. It counts as cell-based. The following applies: Homo sapiens, HFF-3, read-out: IC50, µM Fibroblast hFF3. Summed up:
as §1

Assay [6] concerns caspase-3/7 in HeLa cells. The experiment in a line: Executioner caspases-3/7 activity assay (Caspase-Glo 3/7). In kind it is cell-based, human. The following applies: 48 h. The protocol:
The activity of caspase-3/7 in HeLa cells was evaluated using a Caspase-Glo® 3/7 assay kit (Promega, Madison, WI, USA) according to manufacturer’s instructions. […] After incubation, 100 µL of Caspase-Glo® 3/7 Reagent was added to each wells, the plate was carefully shaken on a plate mixer, then incubated for 30 min in darkness at room temperature. The luminescence was measured using a luminometer (CLARIOstar plate reader (BMG Labtech, Ortenberg, Germany)).

A further assay concerns HeLa cells. In words: Colony-forming assay. In kind it is cell-based, human. The settings on record: 14 days. The protocol:
HeLa cells were seeded in 96-well plates in tetraplicates at a density of 100 cells/well and treated by 5f (0.25, 0.5 µM) for 14 days under standard conditions. Then cell colonies were fixed with 4% paraformaldehyde, stained with crystal violet dye (0.1% w/v), and photographed using a Vilber Lourmat transilluminator (Marne La Vallee, France). The percentage of area covered by cell colonies was calculated using a ColonyArea ImageJ plugin [91].

The next assay deals with B16 melanoma. In words: Metastatic model of murine B16 melanoma in C57Bl/6 mice. In kind it is in vivo. The settings on record: five injections; for decrease of the numbers of surface metastases in the lungs: day 14. The protocol: To generate a metastatic model of tumor progression, 10^5 B16 melanoma cells suspended in 0.2 mL of saline buffer were inoculated into the lateral tail vein of C57Bl/6 mice. On day 4 after tumor transplantation, mice were divided into three groups (n = 9 per group): (1) mice without treatment (control); (2) mice who received intraperitoneal (i.p.) injections of 10% Tween-80 (vehicle); and (3) mice who received i.p. injections of 5f in 10% Tween-80 at a dose of 50 mg/kg. The treatment was carried out three times a week. The total number of injections was five. Mice were sacrificed on day 14 after B16 melanoma transplantation and the lungs were collected for calculation of surface metastases.
To study the antimetastatic action of 5f, evaluation of surface metastases in lungs of B16 melanoma bearing mice was carried out. Surface metastases in the lungs were counted using a binocular microscope. Inhibition of metastases development was assessed using the metastasis inhibition index (MII), calculated according to the formula: MII=(∑n(N¯control−Nn)×100% /N¯control)/n, where N is the number of surface metastases and n is the number of mice in the analyzed group. The MII of the control group was taken as 0% and the MII reflecting the absence of metastases was taken as 100%.

In general, IC50 refers to the concentration that inhibits the measured activity by half. In the case of `CC1(C)C2CC[C@]3(C)C(C(=O)C=C4[C@@H]5C[C@@](C)(c6nc(-c7ccccn7)no6)CC[C@]5(C)CC[C@]43C)[C@@]2(C)CC[C@@H]1O` (stereo partly drawn) [Compound 5f, 30-nor-3β-hydroxy-11-oxo-20-(3′-(pyridin-2′′-yl)-1′,2′,4′-oxadiazol-5′-yl)-18βH-olean-12-en], the IC50 is 3.6 ± 0.5 µM in [1] (Homo sapiens, HeLa, MTT, 48 h, read-out: IC50, µM Cervix HeLa); 4.7 ± 0.1 µM in assay [2] (Homo sapiens, KB 3-1, MTT, 48 h, read-out: IC50, µM Cervix KB-3-1); 3.8 ± 0.3 µM in assay [3] (Homo sapiens, HuTu80, MTT, 48 h, read-out: IC50, µM Duodenum HuTu-80); > 50 µM in assay [4]; 9.4 ± 0.4 µM in the assay with murine melanoma B16 (Mus musculus, MTT, 48 h); > 50 µM in [5]. In addition, the “Selectivity index: HeLa” value in assay [1] (IC50 in hFF3 / IC50 in HeLa) is recorded as > 13.9. The “Selectivity index: KB-3-1” value in assay [2] (IC50 in hFF3 / IC50 in KB-3-1) was > 10.6. Also, the “Selectivity index: HuTu-80” value in assay [3] (IC50 in hFF3 / IC50 in HuTu-80) is given as > 13.2. Also, in the assay with murine melanoma B16 (IC50 in hFF3 / IC50 in B16), the “Selectivity index: B16” value is listed as > 5.3. For the same compound, the “increase of caspase-3/7 activity in comparison with control” value in [6] (5 µM) is on record as 1.3 times; in assay [6] (7 µM), 1.9 times. Further, the “suppression of colony formation compared to the control” value with HeLa cells (0.5 µM) is “three-fold”. Besides, the “effect on clonogenic characteristics” value in the assay with HeLa cells (lower concentration (0.25 µM)) is reported as “had no effect on the clonogenic characteristics of HeLa cells”. Further, the “mice with kidney metastases” value in the assay with B16 melanoma (50 mg/kg i.p.) is reported as 2/9. The “mice with liver metastases” value in the assay with B16 melanoma (50 mg/kg i.p.) is 1/9. The “decrease of the numbers of surface metastases in the lungs” value in the assay with B16 melanoma (50 mg/kg i.p., compared to untreated control animals) is 4.5 times; in the assay on B16 melanoma (50 mg/kg i.p., compared to vehicle-treated animals) it was 3.4 times. The “metastasis inhibition index (MII)” value with B16 melanoma (50 mg/kg i.p., relative to untreated control) came to 77.7 ± 4.7%. Besides, in the assay on B16 melanoma (50 mg/kg), the “suppression of metastasis growth compared to the vehicle-treated control” value was 70%.
